target: MTH1 (Homo sapiens, UniProt P36639); test: MTH1 enzymatic assay and IC50 value determination (malachite green, 96- and 384-well format); assay type: biochemical; conditions: hydrolysis of dGTP (100 μM), MTH1 6 nM, pyrophosphatase-coupled malachite green, 15 minutes at 22° C.
Protocol: MTH1 Enzymatic Assay and IC50 Value Determination
MTH1 catalyzes the hydrolysis of dGTP to dGMP and PPi. By coupling the reaction to pyrophosphatase added in excess PPi is converted to Pi that can be detected by using the malachite green assay reagent. Two different formats were used for IC50 determinations in the enzymatic assay, 96- and 384-well format. 96-Well Method:
Briefly, the compound to be analyzed is diluted in DMSO in a 1:3 dilution series generating 12 different compound concentrations giving a final DMSO concentration of 1% in the assay well. MTH1 diluted in assay buffer (100 mM Tris-acetate, 40 mM NaCl, 10 mM magnesium acetate, 1 mM DTT and 0.005% Tween 20) fortified with E. coli pyrophosphatase (0.2 U/ml) is added to a final concentration of 6 nM. dGTP diluted in assay buffer is added to a final concentration of 100 μM. The reaction mixture is incubated for 15 minutes at 22° C. To 100 μl reaction mixture, 25 μl Malachite green assay regent (0.095% Malachite green in 17% H2SO4, 1.5% Ammonium molybdate, 0.17% Tween 20) is added, followed by incubation with shaking for 15 minutes at 22° C. The absorbance of the assay plate is read at 630 nm using a Hidex Sense Multilabel plate reader. The IC50 value is determined by fitting a dose response curve to the data points using nonlinear regression analysis and the equation Y=Bottom+(Top−Bottom)/(1+10^((Log IC50−X)*HillSlope)), where Y is the read absorbance at 630 nm and X is log [compound].
The compounds to be tested are nano-dispensed, in 11 concentrations, directly in assay plates, with a final DMSO concentration <1%. The protocol and the reaction mixture are the same as for the 96-well assay, with a total reaction volume of 50 μl/well to which 10 μl of Malachite green reagent is added. All additions to the assay plates are made with multidrop.

| SMILES | IC50 [nM] |
| --- | --- |
| Cc1c(Cl)cccc1-c1cc(NCCc2ccc(S(C)(=O)=O)cc2)nc(N)n1 [Example 1, 6-(3-chloro-2-methylphenyl)-4-N-[2-(4-methanesulfonylphenyl)ethyl]pyrimidine-2,4-diamine] | < 200 |
| Cc1cccc(-c2cc(NCCCNc3ccc(S(N)(=O)=O)cn3)nc(N)n2)c1C [Example 2, 6-[(3-{[2-amino-6-(2,3-dimethylphenyl)pyrimidin-4-yl]amino}propyl)amino]pyridine-3-sulfonamide] | < 200 |
| CNS(=O)(=O)c1ccc(NCCNc2cc(-c3cccc(C)c3C)nc(N)n2)nc1 [Example 3, 6-[(2-{[2-amino-6-(2,3-dimethylphenyl)pyrimidin-4-yl]amino}ethyl)amino]-N-methylpyridine-3-sulfonamide] | < 200 |
| Cc1cccc(-c2cc(NCCNc3ccc(S(C)(=O)=O)nc3)nc(N)n2)c1C [Example 13, 6-(2,3-dimethylphenyl)-4-N-{2-[(6-methanesulfonylpyridin-3-yl)amino]ethyl}pyrimidine-2,4-diamine] | < 200 |
| CC(C)(C)OC(=O)N1CC=C(c2cc(NCCc3ccc(S(N)(=O)=O)cc3)nc(N)n2)CC1 [Example 131, tert-butyl 4-(2-amino-6-{[2-(4-sulfamoylphenyl)ethyl]amino}pyrimidin-4-yl)-1,2,3,6-tetrahydropyridine-1-carboxylate] | < 200 |
| Nc1nc(NCCc2ccc(S(N)(=O)=O)cc2)cc(C2=CCCCCC2)n1 [Example 132, 4-(2-{[2-amino-6-(cyclohept-1-en-1-yl)pyrimidin-4-yl]amino}ethyl)benzene-1-sulfonamide] | < 200 |
| Nc1nc(NCCc2ccc(S(N)(=O)=O)cc2)cc(C2CCCCCC2)n1 [Example 134, 4-{2-[(2-amino-6-cycloheptylpyrimidin-4-yl)amino]ethyl}benzene-1-sulfonamide] | < 200 |
| CC(=O)N1CC=C(c2cc(NCCc3ccc(S(N)(=O)=O)cc3)nc(N)n2)CC1 [Example 135, 4-(2-{[6-(1-acetyl-1,2,3,6-tetrahydropyridin-4-yl)-2-aminopyrimidin-4-yl]amino}ethyl)benzene-1-sulfonamide] | < 200 |
| CC(C)C(=O)N1CC=C(c2cc(NCCc3ccc(S(N)(=O)=O)cc3)nc(N)n2)CC1 [Example 136, 4-[2-({2-amino-6-[1-(2-methylpropanoyl)-1,2,3,6-tetrahydropyridin-4-yl]pyrimidin-4-yl}amino)ethyl]benzene-1-sulfonamide] | < 200 |
| CS(=O)(=O)N1CC=C(c2cc(NCCc3ccc(S(N)(=O)=O)cc3)nc(N)n2)CC1 [Example 137, 4-(2-{[2-amino-6-(1-methanesulfonyl-1,2,3,6-tetrahydropyridin-4-yl)pyrimidin-4-yl]amino}ethyl)benzene-1-sulfonamide] | < 200 |
| Nc1nc(NCCc2ccc(S(N)(=O)=O)cc2)cc(C2=CCN(C(=O)c3ccno3)CC2)n1 [Example 138, 4-[2-({2-amino-6-[1-(1,2-oxazole-5-carbonyl)-1,2,3,6-tetrahydropyridin-4-yl]pyrimidin-4-yl}amino)ethyl]benzene-1-sulfonamide] | < 200 |
| Nc1nc(NCCc2ccc(S(N)(=O)=O)cc2)cc(C2=CCN(C(=O)C3CCCC3)CC2)n1 [Example 139, 4-(2-{[2-amino-6-(1-cyclopentanecarbonyl-1,2,3,6-tetrahydropyridin-4-yl)pyrimidin-4-yl]amino}ethyl)benzene-1-sulfonamide] | < 200 |
| Nc1nc(NCCc2ccc(S(N)(=O)=O)cc2)cc(C2=CCN(C(=O)CC3CCCC3)CC2)n1 [Example 140, 4-[2-({2-amino-6-[1-(2-cyclopentylacetyl)-1,2,3,6-tetrahydropyridin-4-yl]pyrimidin-4-yl}amino)ethyl]benzene-1-sulfonamide] | < 200 |
| Cc1ccc(C(=O)N2CC=C(c3cc(NCCc4ccc(S(N)(=O)=O)cc4)nc(N)n3)CC2)cc1 [Example 141, 4-[2-({2-amino-6-[1-(4-methylbenzoyl)-1,2,3,6-tetrahydropyridin-4-yl]pyrimidin-4-yl}amino)ethyl]benzene-1-sulfonamide] | < 200 |
| Cc1c(Cl)cccc1-c1cc(NCCNc2ccc(C(N)=O)cn2)nc(N)n1 [Example 147] | < 200 |
| Cc1c(Cl)cccc1-c1cc(NCCNc2ccc(NC(=O)NC(C)(C)C)cn2)nc(N)n1 [Example 156, 1-[6-[2-[[2-amino-6-(3-chloro-2-methyl-phenyl)pyrimidin-4-yl]amino]ethylamino]-3-pyridyl]-3-tert-butyl-urea] | < 200 |
| Cc1c(Cl)cccc1-c1cc(NCCNc2ccc(NC(=O)OC(C)(C)C)cn2)nc(N)n1 [Example 157, tert-butyl N-[6-[2-[[2-amino-6-(3-chloro-2-methyl-phenyl)pyrimidin-4-yl]amino]ethylamino]-3-pyridyl]carbamate] | < 200 |
| Cc1c(Cl)cccc1-c1cc(NCCNc2nc(N)nc(N)n2)nc(N)n1 [Example 158, N2-[2-[[2-amino-6-(3-chloro-2-methyl-phenyl)pyrimidin-4-yl]amino]ethyl]-1,3,5-triazine-2,4,6-triamine] | < 200 |
| Cc1c(Cl)cccc1-c1cc(NCCc2ccc(C(N)=O)cc2F)nc(N)n1 [Example 162, 4-[2-[[2-amino-6-(3-chloro-2-methyl-phenyl)pyrimidin-4-yl]amino]ethyl]-3-fluoro-benzamide] | < 200 |
| Cc1c(Cl)cccc1-c1cc(NCCSCc2ccc(CN(C)C)o2)nc(N)n1 [Example 175, 6-(3-chloro-2-methyl-phenyl)-N4-[2-[[5-[(dimethylamino)methyl]-2-furyl]methylsulfanyl]ethyl]pyrimidine-2,4-diamine] | < 200 |
| Cc1c(Cl)cccc1-c1cc(NCCc2cccc(NC(=N)N)c2)nc(N)n1 [Example 179, 1-[3-[2-[[2-amino-6-(3-chloro-2-methyl-phenyl)pyrimidin-4-yl]amino]ethyl]phenyl]guanidine] | < 200 |
| Cc1c(Cl)cccc1-c1cc(NCC#CCSc2cccc(C(=O)O)c2)nc(N)n1 [Example 193] | < 200 |
| Cc1c(-c2cc(NCCc3ccc(S(N)(=O)=O)cc3)nc(N)n2)cccc1C(F)(F)F [Example 197, 4-[2-({2-amino-6-[2-methyl-3-(trifluoromethyl)phenyl]pyrimidin-4-yl}amino)ethyl]benzene-1-sulfonamide] | < 200 |
| Cc1c(Cl)cccc1-c1cc(NCCOc2ccc(C(F)(F)F)cn2)nc(N)n1 [Example 199, 6-(3-chloro-2-methylphenyl)-N4-(2-{[5-(trifluoromethyl)pyridin-2-yl]oxy}ethyl)pyrimidine-2,4-diamine] | < 200 |
| Cc1c(Cl)cccc1-c1cc(NCCOc2ccc(-c3nn[nH]n3)cc2)nc(N)n1 [Example 202, 6-(3-chloro-2-methylphenyl)-N4-{2-[4-(2H-1,2,3,4-tetrazol-5-yl)phenoxy]ethyl}pyrimidine-2,4-diamine] | < 200 |
| Cc1c(Cl)cccc1-c1cc(NCC(O)c2ccc(S(C)(=O)=O)cc2)nc(N)n1 (stereo not drawn) [Example 215, 2-(2-amino-6-(3-chloro-2-methylphenyl)pyrimidin-4-ylamino)-1-(4-(methylsulfonyl)phenyl)ethanol] | < 200 |
| Cc1c(Cl)cccc1-c1cc(NCC(O)c2ccc(S(N)(=O)=O)cc2)nc(N)n1 (stereo not drawn) [Example 216, 4-(2-(2-Amino-6-(3-chloro-2-methylphenyl)pyrimidin-4-ylamino)-1-hydroxyethyl)benzenesulfonamide] | < 200 |
| CS(=O)(=O)c1ccc(CCNc2cc(-c3cccc(Cl)c3CO)nc(N)n2)cc1 [Example 217, (2-(2-Amino-6-(4-(methylsulfonyl)phenethylamino)pyrimidin-4-yl)-6-chlorophenyl)methanol] | < 200 |
| Nc1nc(NCCc2ccc(S(N)(=O)=O)cc2)cc(-c2cccc(Cl)c2CO)n1 [Example 218, 4-(2-(2-Amino-6-(3-chloro-2-(hydroxymethyl)phenyl)pyrimidin-4-ylamino)ethyl)benzenesulfonamide] | < 200 |

test system: cancer cell; test: Cell viability assay (resazurin); assay type: cell-based; conditions: 72 h; 3 days with compound, resazurin fluorescence; cell line not named
Protocol: The utility of the compounds of the present invention can be illustrated, for example, by their activity in vitro in the cancer cell clonogenic and/or viability assay described below. The link between activity in tumor cell clonogenic assay and anti-tumor activity in the clinical setting has been well established in the art (e.g. see ref Silverstini et al Stem Cells 1993, 11(6), 258-35).
Cells are seeded into 96 well plates (1000-3000 cells/well) in DMEM GlutaMAX™ or other suitable media dependent on cell line and incubated overnight in 5% CO2, 37° C. Thereafter cells are treated with compound or vehicle and left in incubator for 3 days until staining with resazurin. Cells are incubated in resazurin (diluted in suitable media) at 37° C. for 2 hours before measuring the fluorescence (Ex544/Em590).
The compounds to be tested are nano-dispensed in 11 concentrations, directly in 384-well cell plates, with a final DMSO concentration <1%. Cells are seeded in cell plates, pre-dispensed with compounds, 50 μl/well (600-1200 cells/well). After 3 days culture in 5% CO2, 37° C., resazurin diluted in PBS is added, 10 μl/well, and cells are incubated 3 hours before measuring fluorescence (Ex544/Em590).

| SMILES | IC50 [nM] |
| --- | --- |
| Cc1c(Cl)cccc1-c1cc(NCCc2ccc(S(C)(=O)=O)cc2)nc(N)n1 [Example 1, 6-(3-chloro-2-methylphenyl)-4-N-[2-(4-methanesulfonylphenyl)ethyl]pyrimidine-2,4-diamine] | < 500 |
| Cc1cccc(-c2cc(NCCCNc3ccc(S(N)(=O)=O)cn3)nc(N)n2)c1C [Example 2, 6-[(3-{[2-amino-6-(2,3-dimethylphenyl)pyrimidin-4-yl]amino}propyl)amino]pyridine-3-sulfonamide] | < 500 |
| CNS(=O)(=O)c1ccc(NCCNc2cc(-c3cccc(C)c3C)nc(N)n2)nc1 [Example 3, 6-[(2-{[2-amino-6-(2,3-dimethylphenyl)pyrimidin-4-yl]amino}ethyl)amino]-N-methylpyridine-3-sulfonamide] | < 500 |
| Cc1cccc(-c2cc(NCCNc3ccc(S(C)(=O)=O)nc3)nc(N)n2)c1C [Example 13, 6-(2,3-dimethylphenyl)-4-N-{2-[(6-methanesulfonylpyridin-3-yl)amino]ethyl}pyrimidine-2,4-diamine] | < 500 |

From patent US10179790B2 (THOMAS HELLEDAYS STIFTELSE FOR MEDICINSK FORSKNING, priority 2014, dated 2019)
